Data set [1] has as its system spinal dorsal horn outer lamina II (IIo) neurons. The data set can be described thus: Patch clamp recording of sEPSCs in spinal cord slices of naive mice. In kind it is cell-based, mouse. The conditions noted are these: DPCPX alone 1 μM. In general terms: Patch clamp records ionic current or voltage across a cell membrane.
Data set [2] deals with adenosine receptor subtypes (A1R, A2AR, A2BR, A3R). The format is in vivo, mouse. Particulars: i.t. 10 nmol.
In the next data set the test system is A1R. Kind of data set: Reversal of JH-ENT-01 analgesia by A1R antagonist in STZ-treated mice. In kind it is in vivo, mouse. Particulars: i.t. 10 nmol, 30 min prior to JH-ENT-01 10 nmol.
Data set [3] deals with mice with STZ-induced diabetic neuropathy. The data set can be described thus: STZ-induced diabetic neuropathy, mechanical pain. In kind it is in vivo, mouse.
For data set [4], the system named is mice, formalin-induced inflammatory pain. Kind of data set: Formalin-induced acute inflammatory pain. In kind it is in vivo, mouse. The conditions noted are these: i.t., JH-ENT-01 1, 10, 100 nmol, dilazep 100 nmol.
For data set [5], the system named is mice. Kind of data set: Electrocardiogram. The format is in vivo, mouse.
Data set [6] has as its system mice. The data set can be described thus: Rotarod test before and 60 min after i.t. delivery. In kind it is in vivo, mouse. Particulars: 60 min after i.t. 100 nmol. (In the rotarod test animals must keep their balance on a rotating rod.)
Data set [7] relates to mice with STZ-induced diabetic neuropathy. The data set can be described thus: Survival of STZ mice after repeated injections. The format is in vivo, mouse.
The next data set has as its target T1, G154S hENT1 (Homo sapiens, UniProt Q99808, G154S).
T1 sequence (Q99808 1-456 G154S): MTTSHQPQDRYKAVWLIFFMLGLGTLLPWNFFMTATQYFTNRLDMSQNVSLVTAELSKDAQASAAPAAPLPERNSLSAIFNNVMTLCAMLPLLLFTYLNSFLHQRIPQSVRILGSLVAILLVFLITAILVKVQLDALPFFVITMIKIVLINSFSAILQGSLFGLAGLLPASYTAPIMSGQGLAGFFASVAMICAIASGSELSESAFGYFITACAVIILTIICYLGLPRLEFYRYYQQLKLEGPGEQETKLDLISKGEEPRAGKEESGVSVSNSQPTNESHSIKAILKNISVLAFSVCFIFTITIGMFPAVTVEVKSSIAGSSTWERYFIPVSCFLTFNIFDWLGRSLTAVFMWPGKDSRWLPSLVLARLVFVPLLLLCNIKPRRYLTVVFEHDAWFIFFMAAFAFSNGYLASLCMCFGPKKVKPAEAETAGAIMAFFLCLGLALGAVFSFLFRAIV
The data set can be described thus: [3H]-adenosine uptake in oocytes expressing G154S hENT1. In kind it is cell-based. The conditions noted are these: Fig 1g.

Data set [8] has as its system mice, CFA-induced inflammatory pain. The data set can be described thus: CFA-induced persistent inflammatory pain, von Frey test. The format is in vivo, mouse. Particulars: i.v., 10 mg/ml as printed; days 1, 3, 5 after CFA.
Data set [9] can be described thus: Plasma and tissue pharmacokinetics after subcutaneous administration. In kind it is in vivo. The conditions noted are these: male, CD-1, mouse, plasma, sc.

The structures appear in SMILES notation.

In the case of `CCCn1c(=O)c2[nH]c(C3CCCC3)nc2n(CCC)c1=O` [DPCPX], the “sEPSC frequency and amplitude” value in [1] was “no effects on sEPSC frequency and amplitude”. In data set [2], the “reversal of JH-ENT-01 analgesia” value is “reversal”. In addition, the “effect on analgesic action of JH-ENT-01 (PWT)” value in the data set on A1R is on record as “prevented”.

The Cmax is the highest concentration seen after dosing. For the molecule `COc1cc(C(=O)OCCCN2CCCN(CCCOC(=O)c3cc(OC)c(OC)c(OC)c3)CC2)cc(OC)c1OC` [dilazep], the “paw withdrawal threshold (PWT)” value is “failed to elicit an increase in PWT” in [3] (i.t. 10 nmol); “did not observe any analgesic effect” in [3] (i.v. 30 mg/kg on days 8, 10, 12 after STZ); “no effects” in data set [8]. Also, the “neuropathic pain in the STZ model” value in [3] (s.c. 3 x 30 mg/kg) was “no effects”. Besides, the “formalin-induced 2nd phase pain” value in data set [4] is “significant inhibition of phase 2 pain only when data from both sexes were combined”. Besides, the “formalin-induced phase 1 pain” value in data set [4] (both sexes) is “not affected”. The “effect on heart rates” value in the data set with mice [5] (i.p. 10 mg/kg and 30 mg/kg) is given as “no significant decrease”; in the data set on mice [5] (i.v. 30 mg/kg, first hour), “significant decrease”. The “motor function in rotarod test” value with mice [6] was “no significant changes in the falling latency”. The “death / survival of mice” value in data set [7] (i.v. 30 mg/kg, 3 injections) was 7 out of 16. Moreover, in data set [7] (s.c. 3 x 30 mg/kg), the survival of mice entry is on record as “all mice survived”. The “preferential inhibition of wild type hENT1 over G154S” value on G154S hENT1 was “did not show any preference”. Also, the “paw withdrawal frequency (PWF)” value in [8] is “no effects”. The molecule also returned a maximum concentration (Cmax) in data set [9] of 409 ng/mL.

Source of the values: PMC11685430 (Nature Communications, 2024).
